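All cell lines were grown in 96-well plates and treated with compound for 48 hours. TGI is the concentration that stops growth completely.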
What was measured:
Assay in all cases: DTP human tumour cell line panel, 48 h
786-0 renal = tested on: 786-0 renal
A549 NSCLC = tested on: A549 NSCLC
BT-549 breast = tested on: BT-549 breast
CCRF-CEM leukemia = tested on: CCRF-CEM leukemia
HCC-2998 colon = tested on: HCC-2998 colon
HCT-116 colon = tested on: HCT-116 colon
HCT-15 colon = tested on: HCT-15 colon
HOP-92 NSCLC = tested on: HOP-92 NSCLC
HS 578T breast = tested on: HS 578T breast
HT29 colon = tested on: HT29 colon
MALME-3M melanoma = tested on: MALME-3M melanoma
MCF7 breast = tested on: MCF7 breast
MDA-MB-231 breast = tested on: MDA-MB-231 breast
MOLT-4 leukemia = tested on: MOLT-4 leukemia
NCI-H522 lung = tested on: NCI-H522 lung
SF-268 CNS = tested on: SF-268 CNS
SF-295 CNS = tested on: SF-295 CNS
SK-MEL-2 melanoma = tested on: SK-MEL-2 melanoma
U251 CNS = tested on: U251 CNS

| SMILES | TGI (786-0 renal) | TGI (A549 NSCLC) | TGI (BT-549 breast) | TGI (CCRF-CEM leukemia) | TGI (HCC-2998 colon) | TGI (HCT-116 colon) | TGI (HCT-15 colon) | TGI (HOP-92 NSCLC) | TGI (HS 578T breast) | TGI (HT29 colon) | TGI (MALME-3M melanoma) | TGI (MCF7 breast) | TGI (MDA-MB-231 breast) | TGI (MOLT-4 leukemia) | TGI (NCI-H522 lung) | TGI (SF-268 CNS) | TGI (SF-295 CNS) | TGI (SK-MEL-2 melanoma) | TGI (U251 CNS) |
| --- | --- | --- | --- | --- | --- | --- | --- | --- | --- | --- | --- | --- | --- | --- | --- | --- | --- | --- | --- |
| CC(C)(C)OC(=O)NCC(c1c[nH]c2cc(Br)ccc12)c1c[nH]c2cc(Br)ccc12 | 33.5 µM | 44.7 µM | 30.3 µM | > 100 µM | 38.4 µM | 31.4 µM | 30.2 µM | 28.6 µM | 46.4 µM | 33.5 µM | 31.7 µM | 34.7 µM | 32.4 µM | > 100 µM | 32.7 µM | 31.7 µM | 36.2 µM | 34 µM | 31 µM |
| O=S(=O)(O)c1ccc(N=Nc2ccc(N=Nc3c(O)ccc4ccc(S(=O)(=O)O)cc34)cc2)cc1 | > 100 µM | > 100 µM | > 100 µM | > 100 µM | > 100 µM | > 100 µM | > 100 µM | > 100 µM | > 100 µM | > 100 µM | > 100 µM | > 100 µM | > 100 µM | > 100 µM | > 100 µM | > 100 µM | > 100 µM | > 100 µM | > 100 µM |
| CCOC(=O)C1=NN(c2ccc(C)cc2)C2(c3ccccc3)C=C(c3ccccc3)N(C)CCN12 (stereo not given) | > 100 µM | > 100 µM | > 100 µM | > 100 µM | > 100 µM | > 100 µM | > 100 µM | > 100 µM | > 100 µM | > 100 µM | > 100 µM | > 100 µM | > 100 µM | > 100 µM | > 100 µM | > 100 µM | > 100 µM | > 100 µM | > 100 µM |
| CC12CP(=O)(O)CC1C2(Cl)Cl (stereo not given) | > 100 µM | > 100 µM | > 100 µM | > 100 µM | > 100 µM | > 100 µM | > 100 µM | > 100 µM | > 100 µM | > 100 µM | > 100 µM | > 100 µM | > 100 µM | > 100 µM | > 100 µM | > 100 µM | > 100 µM | > 100 µM | > 100 µM |
| CSc1c(C(N)=S)c(N)nn1-c1ccccc1 | > 100 µM | > 100 µM | > 100 µM | – | > 100 µM | > 100 µM | > 100 µM | > 100 µM | > 100 µM | > 100 µM | > 100 µM | > 100 µM | > 100 µM | > 100 µM | > 100 µM | > 100 µM | – | > 100 µM | > 100 µM |
| Brc1ccc2nc(-c3cccs3)nc(N3CCN(c4ccccc4)CC3)c2c1 | > 100 µM | > 100 µM | > 100 µM | – | > 100 µM | > 100 µM | > 100 µM | > 100 µM | > 100 µM | > 100 µM | > 100 µM | > 100 µM | > 100 µM | – | > 100 µM | > 100 µM | > 100 µM | > 100 µM | > 100 µM |

From PubChem BioAssay (NCI)
